Counter-ions that a name gives are not always drawn.
What was measured:
[1] = Physical form composition of active ingredient in tablets prepared using roller compaction; type: physicochemical
Text: (S)—N-(3-(6-isopropoxypyridin-3-yl)-1H-indazol-5-yl)-1-(2-(4-(4-(1-methyl-1H-1,2,4-triazol-3-yl)phenyl)-3,6-dihydropyridin-1(2H)-yl)-2-oxoethyl)-3-(methylthio)pyrrolidine-3-carboxamide crystalline form 1 HCl was subjected to roller compaction in order to create a granular composition for subsequent use in preparing tablets of (S)—N-(3-(6-isopropoxypyridin-3-yl)-1H-indazol-5-yl)-1-(2-(4-(4-(1-methyl-1H-1,2,4-triazol-3-yl)phenyl)-3,6-dihydropyridin-1(2H)-yl)-2-oxoethyl)-3-(methylthio)pyrrolidine-3-carboxamide crystalline form 1 HCl.
Three tablets (RC-1, RC-2 and RC-3) having the following amounts (weight %) of ingredients were prepared using roller compaction.
The following procedure was followed: • 1. Blend colloidal silicon dioxide and (S)—N-(3-(6-isopropoxypyridin-3-yl)-1H-indazol-5-yl)-1-(2-(4-(4-(1-methyl-1H-1,2,4-triazol-3-yl)phenyl)-3,6-dihydropyridin-1(2H)-yl)-2-oxoethyl)-3-(methylthio)pyrrolidine-3-carboxamide crystalline form 1 HCl in a blender. • 2. Delump the blend using a screen. • 3. Blend lactose monohydrate, microcrystalline cellulose (Avicel 102), and disintegrant (croscarmellose sodium or crospovidone) with the delumped materials from step 2 using a blender. • 4. Add prescreened magnesium stearate lubricant to the blend of step 3 and blend. • 5. Roller compact the blend resulting from step 4 • 6. Screen the roller compacted ribbons through a mesh and add the resulting milled granules to a suitable bin. • 7. Add prescreened extragranular magnesium stearate lubricant to the bin and blend with the milled granules. • 8. Compress the final lubricated blend resulting from step 7 using a suitable rotary tablet press.
(§1) “LOD” refers to “limit of detection” and “<LOD” means the amount of indicated material, if any, was not detectable.

[2] = Physical form composition of active ingredient in tablets prepared using wet granulation; type: physicochemical
Procedure: Wet granulation of (S)—N-(3-(6-isopropoxypyridin-3-yl)-1H-indazol-5-yl)-1-(2-(4-(4-(1-methyl-1H-1,2,4-triazol-3-yl)phenyl)-3,6-dihydropyridin-1(2H)-yl)-2-oxoethyl)-3-(methylthio)pyrrolidine-3-carboxamide crystalline form 1 HCl was achieved using a high shear granulator. […] was alternatively achieved using a fluidized bed procedure.
Two tablets (1a and 1b) having the following amounts (weight %) of ingredients were prepared using wet granulation.
The following procedure was followed: • 1. Prepare a 20% binder solution by adding purified water and polyvinyl pyrrolidone K30 to a mixing vessel and stir until completely dissolved. • 2. Add lactose, microcrystalline cellulose (Avicel 102), (S)—N-(3-(6-isopropoxypyridin-3-yl)-1H-indazol-5-yl)-1-(2-(4-(4-(1-methyl-1H-1,2,4-triazol-3-yl)phenyl)-3,6-dihydropyridin-1(2H)-yl)-2-oxoethyl)-3-(methylthio)pyrrolidine-3-carboxamide crystalline form 1 HCl and a disintegrant (croscarmellose sodium or crospovidone) to a high shear granulator. • 3. Dry mix the ingredients using an impeller and chopper. • 4. Add the binder solution prepared in step 1 to the high shear granulator using a peristaltic pump and flexible tubing. • 5. Spray the binder solution to form wet granules. Additional mixing without spraying of the binder solution (also known as wet massing) may be used. • 6. Pass the wet granulation through a screen. • 7. Dry the granules using a tray dryer and dry heat. • 8. Pass the dried granules through a screen and add to a bin. • 9. Add extragranular disintegrant (croscarmellose sodium or crospovidone) to the materials in step 8 and blend. • 10. Add prescreened magnesium stearate lubricant to the bin and blend. • 11. Compress the lubricated blend resulting from step 10 using a suitable rotary tablet press. Fluidized Bed Granulation: • 1. Prepare a 20% binder solution by adding purified water and PVP K30 to a mixing vessel and stir until completely dissolved. • 2. Add lactose monohydrate, microcrystalline cellulose, (S)—N-(3-(6-isopropoxypyridin-3-yl)-1H-indazol-5-yl)-1-(2-(4-(4-(1-methyl-1H-1,2,4-triazol-3-yl)phenyl)-3,6-dihydropyridin-1(2H)-yl)-2-oxoethyl)-3-(methylthio)pyrrolidine-3-carboxamide crystalline form 1 HCl and croscarmellose sodium or crospovidone disintegrant to a fluid bed to form a mixture. • 3. Pre-heat the materials of step 2 using fluid air until the target bed temperature reaches 55°-60° C. • 4. Spray the binder solution prepared in step 1 onto the mixture resulting from step 2 to form wet granules. • 5. Fluidize and dry the wet granules resulting from step 4. • 6. Pass the dried granules through a screen and add to a bin • 7. Add extragranular croscarmellose sodium or crospovidone disintegrant to the dried granules and blend. • 8. Add prescreened magnesium stearate lubricant to the blend resulting from step 7 and blend. • 9. Compress the final lubricated blend using a suitable rotary tablet press.
as §1

[3] = share of total active ingredient
[4] = wet granulation tablets, <LOD = not detectable
[5] = wet granulation tablets, share of total active ingredient

In the case of CS[C@@]1(C(=O)Nc2ccc3[nH]nc(-c4ccc(OC(C)C)nc4)c3c2)CCN(CC(=O)N2CC=C(c3ccc(-c4ncn(C)n4)cc3)CC2)C1 [F-1 HCl, (S)—N-(3-(6-isopropoxypyridin-3-yl)-1H-indazol-5-yl)-1-(2-(4-(4-(1-methyl-1H-1,2,4-triazol-3-yl)phenyl)-3,6-dihydropyridin-1(2H)-yl)-2-oxoethyl)-3-(methylthio)pyrrolidine-3-carboxamide crystalline form 1 HCl], the “F-1 FB (crystalline form 1 free base) amount” value ([1]; <LOD = not detectable) is reported as “<LOD”, the “Am FB (amorphous free base) amount” value [1, 3] is reported as “<LOD” and the “Am HCl (amorphous HCl) amount” value [1, 3] is reported as 7%. For the same compound, the “F-1 HCl (crystalline form 1 HCl) amount” value [1, 3] was 92%, the “disproportionation of crystalline form 1 HCl” value ([2]; wet granulation processing (high shear or fluidized bed)) was “no disproportionation” and the “Am FB (amorphous free base) amount” value [2, 4] was “LOD”. For the same compound, the “F-1 FB (crystalline form 1 free base) amount” value [2, 4] was “LOD”, the “Am HCl (amorphous HCl) amount” value [2, 5] was 7% and the “F-1 HCl (crystalline form 1 HCl) amount” value [2, 5] was 92%.

Source: patent US10058544B2, “(S)-N-(3-(6-isopropoxypyridin-3-yl)-1H-indazol-5-yl)-1-(2-(4-(4-(1-methyl-1H-1,2,4-triazol-3-yl)phenyl)-3,6-dihydropyridin-1(2H)-yl)-2-oxoethyl)-3-(methylthio)pyrrolidine-3-carboxamide compositions for pharmaceutical preparations” (Merck Sharp & Dohme Corp., priority 2014, dated 2018)
